Here are results for 15 compounds from patent US12384797B2, “Thioeno[3,2-b] pyridin-7-amine compounds for treating familial dysautonomia” (PTC THERAPEUTICS, INC., priority 2019, dated 2025).

The test has as its system Elongator complex protein 1 (ELP1, also referred to as IKBKAP). The test is described as follows: IKBKAP-HTRF assay (IKBKAP protein in lysates of FD patient-derived fibroblasts). Type of test: cell-based, human. As to conditions: 48 hours incubation, 7-point concentration curve. The procedure, abridged: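 FD patient-derived fibroblasts (10,000/well) were treated 48 h at 37 °C with a 7-point, 3.16-fold compound series in triplicate, then lysed. IKBKAP was read by sandwich HTRF (donor/acceptor anti-IKAP antibodies, overnight at 4 °C, 665/620 nm). MFI is ΔF over vehicle ΔF; EC2x is the concentration giving twice the vehicle IKBKAP level.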
For orientation: In TR-FRET formats the signal depends on donor and acceptor labels being close together.
As to `N[C@@H](CO)Cc1sc2c(NCc3nccs3)cc(Cl)nc2c1Br` [Compound 71, (2R)-2-amino-3-(3-bromo-5-chloro-7-{[(1,3-thiazol-2-yl)methyl]amino}thieno[3,2-b]pyridin-2-yl)propan-1-ol], the “EC2x for IKBKAP protein expression (concentration producing two times the amount of IKBKAP protein vs DMSO vehicle control)” value is recorded as “***** (≤0.005 μM is indicated by five stars (*****))” and the “MFI (maximum fold increase in IKBKAP protein abundance relative to the vehicle control)” value is “***** (>4.9 is indicated by five stars (*****))”.
As to `Cc1c(C(C)O)sc2c(NCc3ccco3)cc(Cl)nc12` (stereo not drawn) [Compound 3, 1-(5-chloro-7-{[(furan-2-yl)methyl]amino}-3-methylthieno[3,2-b]pyridin-2-yl)ethan-1-ol], the “EC2x for IKBKAP protein expression (concentration producing two times the amount of IKBKAP protein vs DMSO vehicle control)” value is “*** (between >0.02 μM and ≤0.5 μM is indicated by three stars (***))”; the “MFI (maximum fold increase in IKBKAP protein abundance relative to the vehicle control)” value is “*** (between >2.9 and ≤3.9 is indicated by three stars (***))”.
On to `CC[C@H](N)Cc1sc2c(NCc3nccs3)cc(Cl)nc2c1Cl` [Compound 82, 2-[(2S)-2-aminobutyl]-3,5-dichloro-N-[(1,3-thiazol-2-yl)methyl]thieno[3,2-b]pyridin-7-amine], for which the “EC2x for IKBKAP protein expression (concentration producing two times the amount of IKBKAP protein vs DMSO vehicle control)” value is “***** (≤0.005 μM is indicated by five stars (*****))” and the “MFI (maximum fold increase in IKBKAP protein abundance relative to the vehicle control)” value is on record as “***** (>4.9 is indicated by five stars (*****))”.
Take `Cc1c(C[C@H](C)N)sc2c(NCc3ccco3)cc(Cl)nc12` [Compound 18, 2-[(2S)-2-aminopropyl]-5-chloro-N-[(furan-2-yl)methyl]-3-methylthieno[3,2-b]pyridin-7-amine]: the “EC2x for IKBKAP protein expression (concentration producing two times the amount of IKBKAP protein vs DMSO vehicle control)” value is “***** (≤0.005 μM is indicated by five stars (*****))” and the “MFI (maximum fold increase in IKBKAP protein abundance relative to the vehicle control)” value is given as “***** (>4.9 is indicated by five stars (*****))”.
Take `COC[C@H](N)Cc1sc2c(NCc3ccco3)cc(Cl)nc2c1Cl` [Compound 40, 2-[(2R)-2-amino-3-methoxypropyl]-3,5-dichloro-N-[(furan-2-yl)methyl]thieno[3,2-b]pyridin-7-amine]: the “EC2x for IKBKAP protein expression (concentration producing two times the amount of IKBKAP protein vs DMSO vehicle control)” value is recorded as “***** (≤0.005 μM is indicated by five stars (*****))” and the “MFI (maximum fold increase in IKBKAP protein abundance relative to the vehicle control)” value was “***** (>4.9 is indicated by five stars (*****))”.
Turning to `CS(=O)(=O)C[C@H](N)Cc1sc2c(NCc3ccco3)cc(Cl)nc2c1Cl` [Compound 113, 2-[(2R)-2-amino-3-(methanesulfonyl)propyl]-3,5-dichloro-N-[(furan-2-yl)methyl]thieno[3,2-b]pyridin-7-amine], the “EC2x for IKBKAP protein expression (concentration producing two times the amount of IKBKAP protein vs DMSO vehicle control)” value was “**** (between >0.005 μM and ≤0.02 μM is indicated by four stars (****))”; the “MFI (maximum fold increase in IKBKAP protein abundance relative to the vehicle control)” value is “***** (>4.9 is indicated by five stars (*****))”.
Consider `Cc1c(C[C@@H](N)CCF)sc2c(NCc3cccs3)cc(Cl)nc12` [Compound 92, 2-[(2S)-2-amino-4-fluorobutyl]-5-chloro-3-methyl-N-[(thiophen-2-yl)methyl]thieno[3,2-b]pyridin-7-amine], for which the “EC2x for IKBKAP protein expression (concentration producing two times the amount of IKBKAP protein vs DMSO vehicle control)” value is listed as “***** (≤0.005 μM is indicated by five stars (*****))” and the “MFI (maximum fold increase in IKBKAP protein abundance relative to the vehicle control)” value was “***** (>4.9 is indicated by five stars (*****))”.
In the case of `Cc1c(C[C@H](N)CF)sc2c(NCc3ccco3)cc(Cl)nc12` [Compound 59, 2-[(2S)-2-amino-3-fluoropropyl]-5-chloro-N-[(furan-2-yl)methyl]-3-methylthieno[3,2-b]pyridin-7-amine], the “EC2x for IKBKAP protein expression (concentration producing two times the amount of IKBKAP protein vs DMSO vehicle control)” value is “*** (between >0.02 μM and ≤0.5 μM is indicated by three stars (***))”; the “MFI (maximum fold increase in IKBKAP protein abundance relative to the vehicle control)” value was “** (between >1.9 and ≤2.9 is indicated by two stars (**))”.
As for `FC(F)Oc1csc2c(NCc3cccs3)cc(Cl)nc12` [Compound 149, 5-chloro-3-(difluoromethoxy)-N-[(thiophen-2-yl)methyl]thieno[3,2-b]pyridin-7-amine], the “EC2x for IKBKAP protein expression (concentration producing two times the amount of IKBKAP protein vs DMSO vehicle control)” value was “*** (between >0.02 μM and ≤0.5 μM is indicated by three stars (***))”; the “MFI (maximum fold increase in IKBKAP protein abundance relative to the vehicle control)” value is “**** (between >3.9 and ≤4.9 is indicated by four stars (****))”.
In the case of `Cc1cc(NCc2nccs2)c2sc(C[C@H](C)N)c(Cl)c2n1` [Compound 60, 2-[(2S)-2-aminopropyl]-3-chloro-5-methyl-N-[(1,3-thiazol-2-yl)methyl]thieno[3,2-b]pyridin-7-amine], the “EC2x for IKBKAP protein expression (concentration producing two times the amount of IKBKAP protein vs DMSO vehicle control)” value was “**** (between >0.005 μM and ≤0.02 μM is indicated by four stars (****))”; the “MFI (maximum fold increase in IKBKAP protein abundance relative to the vehicle control)” value is on record as “***** (>4.9 is indicated by five stars (*****))”.
Consider `C[C@@H](N)c1cc2nc(Cl)cc(NCc3ccco3)c2s1` [Compound 23, 2-[(1R)-1-aminoethyl]-5-chloro-N-[(furan-2-yl)methyl]thieno[3,2-b]pyridin-7-amine], for which the “EC2x for IKBKAP protein expression (concentration producing two times the amount of IKBKAP protein vs DMSO vehicle control)” value was “* (An EC2x>1 μM is indicated by one star (*))”; the “MFI (maximum fold increase in IKBKAP protein abundance relative to the vehicle control)” value is “** (between >1.9 and ≤2.9 is indicated by two stars (**))”.
For `COC[C@H](N)Cc1sc2c(NCc3ccco3)cc(Cl)nc2c1Br` [Compound 44, 2-[(2R)-2-amino-3-methoxypropyl]-3-bromo-5-chloro-N-[(furan-2-yl)methyl]thieno[3,2-b]pyridin-7-amine], the “EC2x for IKBKAP protein expression (concentration producing two times the amount of IKBKAP protein vs DMSO vehicle control)” value is recorded as “***** (≤0.005 μM is indicated by five stars (*****))” and the “MFI (maximum fold increase in IKBKAP protein abundance relative to the vehicle control)” value is reported as “***** (>4.9 is indicated by five stars (*****))”.
Turning to `CS(=O)(=O)C[C@H](N)Cc1sc2c(NCc3ccco3)cc(Cl)nc2c1Br` [Compound 117, 2-[(2R)-2-amino-3-(methanesulfonyl)propyl]-3-bromo-5-chloro-N-[(furan-2-yl)methyl]thieno[3,2-b]pyridin-7-amine], the “EC2x for IKBKAP protein expression (concentration producing two times the amount of IKBKAP protein vs DMSO vehicle control)” value is “**** (between >0.005 μM and ≤0.02 μM is indicated by four stars (****))”; the “MFI (maximum fold increase in IKBKAP protein abundance relative to the vehicle control)” value was “***** (>4.9 is indicated by five stars (*****))”.
For the compound `Cc1c(NC[C@@H](C)N)sc2c(NCc3cccs3)cc(Cl)nc12` [Compound 164, N^2-[(2R)-2-aminopropyl]-5-chloro-3-methyl-N^7-[(thiophen-2-yl)methyl]thieno[3,2-b]pyridine-2,7-diamine], the “EC2x for IKBKAP protein expression (concentration producing two times the amount of IKBKAP protein vs DMSO vehicle control)” value is “*** (between >0.02 μM and ≤0.5 μM is indicated by three stars (***))”; the “MFI (maximum fold increase in IKBKAP protein abundance relative to the vehicle control)” value is “*** (between >2.9 and ≤3.9 is indicated by three stars (***))”.
Regarding `CNCc1sc2c(NCc3ccco3)cc(Cl)nc2c1C` [Compound 27, 5-chloro-N-[(furan-2-yl)methyl]-3-methyl-2-[(methylamino)methyl]thieno[3,2-b]pyridin-7-amine], the “EC2x for IKBKAP protein expression (concentration producing two times the amount of IKBKAP protein vs DMSO vehicle control)” value was “*** (between >0.02 μM and ≤0.5 μM is indicated by three stars (***))”; the “MFI (maximum fold increase in IKBKAP protein abundance relative to the vehicle control)” value was “**** (between >3.9 and ≤4.9 is indicated by four stars (****))”.
